Laboratory results published in patent US20050272055A1 (priority 2000, published 2005).
Entries after “also recorded” stand apart in the source; their conditions may differ.

What was measured:
piglets [1] = details: in vivo
human lymphoid cells = format: cell-based
TNF-α = format: cell-based, human
piglets [2] = system: piglets; set-up: species or system Yorkshire piglets; details: in vivo
CD69 = format: cell-based, human

With “1,2,3,9-tetrahydro-9-methyl-3-[(2-methyl-1H-imidazol-1-yl)]4H-carbazol-4-one,monohychloride, dehydrate [Zofran]” the “BP-24 h (systolic blood pressure)” value (piglets [1]) was 50-60, the “BP-48 h (systolic blood pressure)” value (piglets [1]) was 50-65 and the “Blood Gases” value (piglets [1]) was “norm”. For the same molecule, the Temp-24 h (piglets [1]) was 101-103°, the Temp-48 h (piglets [1]) was 100-103° and the “blood pressure levels in treated and untreated animals” value (piglets [1]) was “no change in the blood pressure”. The cytokine surge (piglets [1]) was “blocks the cytokine surge”, the diarrhea (piglets [1]) was “diarrhea was stopped” and the “effectiveness as 5-HT receptor blockers against SEB-induced incapacitation” value (piglets [1]) was “effective”. For the same molecule, the emesis (piglets [1]) was “recovered from emesis”, the “symptoms caused by increase in serotonin levels” value (piglets [1]) was “can block the symptoms” and the temperature (piglets [1]) was “slight improvement in lowering the temperature”.

`COc1ccc2c(c[n+](C)c3c4cc5c(cc4ccc23)OCO5)c1OC` [Chelerythrine] was tested, and the “effect on SEB-induced proliferation” value (human lymphoid cells) was “effectively blocked” and the “effect on SEB-induced TNF-alpha production” value (TNF-α) was “blocked production of TNF-α”.

In the case of `O=c1c(-c2ccc(O)cc2)coc2cc(O[C@@H]3O[C@H](CO)[C@@H](O)[C@H](O)[C@H]3O)cc(O)c12` [Genistin], the “animals showing this outcome” value (piglets [2]) is reported as 2/2, the “changes in toxin-induced symptoms compared to the untreated controls” value (piglets [2]) is reported as “did not show any significant changes” and the “pathology versus SEB controls” value (piglets [2]) is reported as “No discernable change in pathology”.

With `CO[C@H]1[C@@H](OC)C[C@H](C)[C@@H](OC)C2=CC(=O)C=C(NC(=O)/C(C)=C/C=C\[C@H](OC)[C@@H](OC(N)=O)/C(C)=C/[C@@H]1C)C2=O` [Herbimycin] the “animals showing this outcome” value (piglets [2]) was 2/2, the “changes in toxin-induced symptoms compared to the untreated controls” value (piglets [2]) was “did not show any significant changes” and the “pathology versus SEB controls” value (piglets [2]) was “No discernable change in pathology”. For the same molecule, the rescuing the animals (piglets [2]) was “partially effective”.

`CN1C2CCCC1CC(NC(=O)c1nn(C)c3ccccc13)C2` (stereo not shown) [Kytril] was tested, and the diarrhea (piglets [1]) was “diarrhea was stopped”, the “effectiveness as 5-HT receptor blockers against SEB-induced incapacitation” value (piglets [1]) was “effective” and the “symptoms caused by increase in serotonin levels” value (piglets [1]) was “can block the symptoms”.

In the case of `C[S+]([O-])c1ccc(-c2nc(-c3ccncc3)c(-c3ccc(F)cc3)[nH]2)cc1` (stereo not shown) [P-38 inhibitor], the “effect on SEB-induced proliferation” value (human lymphoid cells) is reported as “clearly inhibited”, the “effect on induction of the TNF-α gene by SEB” value (TNF-α) is reported as “brought down back to control levels” and the “effect on SEB induction of CD69” value (CD69) is reported as “clearly blocked”.

`CC(=O)CCCCn1c(=O)c2c(ncn2C)n(C)c1=O` [Pentoxifylline] was tested, and the “animals showing this pathology” value (piglets [2]) was 3/3, the “animals survived after the treatment” value (piglets [2]) was 3 out of 3 and the “animals with moderate pathology” value (piglets [2]) was 2/3. For the same molecule, the “animals worse-off, similar to SEB control” value (piglets [2]) was 1/3, the gross pathology findings (piglets [2]) was “No perirenal or mesenteric edema, though there is mesenteric lymphadenopathy” and the pathology (piglets [2]) was “Mild pathology; also recorded: Moderate pathology”. For the same molecule, the “time post exposure to SEB up to which it works well” value (piglets [2]) was “up to 4 hours”.
